# Source: BindingDB's records for doi:10.1074/jbc.M113.510974 (Albert Einstein College of Medicine, 2013)
# How the values were obtained:
# [1] = biological target: Sulfotransferase 1A1 (Homo sapiens, UniProt P50225); assay: Amoxapine and Protriptyline Inhibition Assay; conditions: pH 7.5; 2 °C
# Procedure: (§1) Sulfation of PnP was monitored optically at λ = 415 nm (ε415 = 10.6 mM-1 cm-1 at pH 7.5 [Whittemore et al., Biochemistry, 24:2477-2482).
# [2] = biological target: T1, Sulfotransferase 2A1 (Homo sapiens, UniProt Q06520); assay: Amoxapine and Protriptyline Inhibition Assay; conditions: pH 7.5; 2 °C
# T1 sequence (Q06520 whole entry): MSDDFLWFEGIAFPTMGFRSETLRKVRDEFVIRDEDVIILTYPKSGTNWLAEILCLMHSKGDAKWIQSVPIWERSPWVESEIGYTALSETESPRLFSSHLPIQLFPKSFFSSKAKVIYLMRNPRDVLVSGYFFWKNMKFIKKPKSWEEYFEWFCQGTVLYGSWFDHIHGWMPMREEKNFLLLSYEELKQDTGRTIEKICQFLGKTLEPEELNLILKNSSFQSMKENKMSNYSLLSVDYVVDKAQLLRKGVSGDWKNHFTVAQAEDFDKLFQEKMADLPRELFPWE
# Procedure: as §1
# Chain of Sulfotransferase 1A1 (P50225 whole entry): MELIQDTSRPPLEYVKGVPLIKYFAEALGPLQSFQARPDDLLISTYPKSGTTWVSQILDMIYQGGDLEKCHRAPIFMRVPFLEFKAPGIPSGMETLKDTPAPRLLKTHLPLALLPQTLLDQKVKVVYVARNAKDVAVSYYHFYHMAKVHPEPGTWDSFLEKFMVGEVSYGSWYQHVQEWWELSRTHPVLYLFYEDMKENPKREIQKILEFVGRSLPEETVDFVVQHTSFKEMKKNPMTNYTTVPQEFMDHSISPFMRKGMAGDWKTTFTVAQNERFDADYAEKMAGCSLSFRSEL
Ki [1],Ki [2],SMILES
35 µM,125 µM,Clc1ccc2c(c1)C(N1CCNCC1)=Nc1ccccc1O2
55 µM,76 µM,"CNCCCC1c2ccccc2C=Cc2ccccc21 [3-(5H-dibenzo[a,d][7]annulen-5-yl)-N-methylpropan-1-amine]"
